# Data published in ChEMBL document CHEMBL5724914, “Linking interpersonal differences in gut microbiota composition and drug biotransformation activity” (2024).
# Tests used:
# [1] = The drug is tested on Z-023 corresponding to metagenome with ENA study accession number: PRJEB37062 and ENA sample accession number: ERS12561822 for biotransformation under anaerobic condition. The drug concentrations were measured over 9 timepoints collected between 0 and 24 hours of incubation by liquid-chromatography-coupled mass spectrometry (LC–MS); settings: 2 µM
# [2] = The drug is tested on Z-021 corresponding to metagenome with ENA study accession number: PRJEB37062 and ENA sample accession number: ERS12561820 for biotransformation under anaerobic condition. The drug concentrations were measured over 9 timepoints collected between 0 and 24 hours of incubation by liquid-chromatography-coupled mass spectrometry (LC–MS); settings: 2 µM
# [3] = The drug is tested on Z-016 corresponding to mouse gut metagenome with ENA study accession number: PRJEB37062 and ENA sample accession number: ERS12561815 for biotransformation under anaerobic condition. The drug concentrations were measured over 9 timepoints collected between 0 and 24 hours of incubation by liquid-chromatography-coupled mass spectrometry (LC–MS); settings: 2 µM
# [4] = The drug is tested on Z-009 corresponding to pig gut metagenome with ENA study accession number: PRJEB37062 and ENA sample accession number: ERS12561809 for biotransformation under anaerobic condition. The drug concentrations were measured over 9 timepoints collected between 0 and 24 hours of incubation by liquid-chromatography-coupled mass spectrometry (LC–MS); settings: 2 µM
# [5] = The drug is tested on Z-008 corresponding to metagenome with ENA study accession number: PRJEB37062 and ENA sample accession number: ERS12561808 for biotransformation under anaerobic condition. The drug concentrations were measured over 9 timepoints collected between 0 and 24 hours of incubation by liquid-chromatography-coupled mass spectrometry (LC–MS); settings: 2 µM
# [6] = The drug is tested on WLS-370 corresponding to human gut metagenome with ENA study accession number: PRJEB37062 and ENA sample accession number: ERS12561793 for biotransformation under anaerobic condition. The drug concentrations were measured over 9 timepoints collected between 0 and 24 hours of incubation by liquid-chromatography-coupled mass spectrometry (LC–MS); settings: 2 µM
# [7] = The drug is tested on WLS-220 corresponding to human gut metagenome with ENA study accession number: PRJEB37062 and ENA sample accession number: ERS12561769 for biotransformation under anaerobic condition. The drug concentrations were measured over 9 timepoints collected between 0 and 24 hours of incubation by liquid-chromatography-coupled mass spectrometry (LC–MS); settings: 2 µM
# [8] = The drug is tested on WLS-170 corresponding to human gut metagenome with ENA study accession number: PRJEB37062 and ENA sample accession number: ERS12561762 for biotransformation under anaerobic condition. The drug concentrations were measured over 9 timepoints collected between 0 and 24 hours of incubation by liquid-chromatography-coupled mass spectrometry (LC–MS); settings: 2 µM
# [9] = The drug is tested on WLS-086 corresponding to human gut metagenome with ENA study accession number: PRJEB37062 and ENA sample accession number: ERS12561752 for biotransformation under anaerobic condition. The drug concentrations were measured over 9 timepoints collected between 0 and 24 hours of incubation by liquid-chromatography-coupled mass spectrometry (LC–MS); settings: 2 µM
# [10] = The drug is tested on WLS-082 corresponding to human gut metagenome with ENA study accession number: PRJEB37062 and ENA sample accession number: ERS12561751 for biotransformation under anaerobic condition. The drug concentrations were measured over 9 timepoints collected between 0 and 24 hours of incubation by liquid-chromatography-coupled mass spectrometry (LC–MS); settings: 2 µM
# [11] = The drug is tested on WLS-077 corresponding to human gut metagenome with ENA study accession number: PRJEB37062 and ENA sample accession number: ERS12561750 for biotransformation under anaerobic condition. The drug concentrations were measured over 9 timepoints collected between 0 and 24 hours of incubation by liquid-chromatography-coupled mass spectrometry (LC–MS); settings: 2 µM
# [12] = The drug is tested on WLS-006 corresponding to human gut metagenome with ENA study accession number: PRJEB37062 and ENA sample accession number: ERS12561741 for biotransformation under anaerobic condition. The drug concentrations were measured over 9 timepoints collected between 0 and 24 hours of incubation by liquid-chromatography-coupled mass spectrometry (LC–MS); settings: 2 µM
# [13] = human gut metagenome, 24 h, 2 µM
# [14] = human gut metagenome, 24 h, 2 µM; remark: listed apart in the source
# [15] = human gut metagenome, 24 h, 2 µM; remark: listed apart in the source
# [16] = human gut metagenome, 24 h, 2 µM; remark: listed apart in the source
# [17] = human gut metagenome, 24 h, 2 µM; remark: listed apart in the source
# [18] = human gut metagenome, 24 h, 2 µM; remark: listed apart in the source
# [19] = human gut metagenome, 24 h, 2 µM; remark: listed apart in the source
# [20] = human gut metagenome, 24 h, 2 µM; remark: listed apart in the source
# Also: call rule not given here.
Bacterial Biotransformation [1],Bacterial Biotransformation [2],Bacterial Biotransformation [3],Bacterial Biotransformation [4],Bacterial Biotransformation [5],Bacterial Biotransformation [6],Bacterial Biotransformation [7],Bacterial Biotransformation [8],Bacterial Biotransformation [9],Bacterial Biotransformation [10],Bacterial Biotransformation [11],Bacterial Biotransformation [12],Bacterial Biotransformation [13],Bacterial Biotransformation [14],Bacterial Biotransformation [15],Bacterial Biotransformation [16],Bacterial Biotransformation [17],Bacterial Biotransformation [18],Bacterial Biotransformation [19],Bacterial Biotransformation [20],Compound
Compound NOT metabolized,Compound NOT metabolized,Compound NOT metabolized,Compound NOT metabolized,Compound NOT metabolized,Compound NOT metabolized,Compound NOT metabolized,Compound metabolized,Compound NOT metabolized,Compound NOT metabolized,Compound NOT metabolized,Compound NOT metabolized,Compound NOT metabolized,Compound NOT metabolized,Compound NOT metabolized,Compound NOT metabolized,Compound NOT metabolized,Compound NOT metabolized,Compound NOT metabolized,Compound NOT metabolized,NC12CC3CC(CC(C3)C1)C2 [AMANTADINE]
Compound metabolized,Compound metabolized,Compound NOT metabolized,Compound metabolized,Compound NOT metabolized,Compound metabolized,Compound metabolized,Compound metabolized,Compound NOT metabolized,Compound NOT metabolized,Compound NOT metabolized,Compound NOT metabolized,Compound metabolized,Compound metabolized,Compound NOT metabolized,Compound metabolized,Compound metabolized,Compound NOT metabolized,Compound NOT metabolized,Compound NOT metabolized,CC(C)(C#N)c1cc(Cn2cncn2)cc(C(C)(C)C#N)c1 [ANASTROZOLE]
Compound metabolized,Compound metabolized,Compound metabolized,Compound metabolized,Compound NOT metabolized,Compound metabolized,Compound metabolized,Compound metabolized,Compound metabolized,Compound metabolized,Compound NOT metabolized,Compound metabolized,Compound metabolized,Compound metabolized,Compound metabolized,Compound metabolized,Compound metabolized,Compound metabolized,Compound NOT metabolized,Compound metabolized,CC(=O)OCC(=O)[C@@]1(O)[C@@H](C)C[C@H]2[C@@H]3CCC4=CC(=O)C=C[C@]4(C)[C@@]3(F)[C@@H](O)C[C@@]21C [BETAMETHASONE ACETATE]

# The next lines start with the compound.
Compound,Bacterial Biotransformation [1],Bacterial Biotransformation [2],Bacterial Biotransformation [3],Bacterial Biotransformation [4],Bacterial Biotransformation [5],Bacterial Biotransformation [6],Bacterial Biotransformation [7],Bacterial Biotransformation [8],Bacterial Biotransformation [9],Bacterial Biotransformation [10],Bacterial Biotransformation [11],Bacterial Biotransformation [12],Bacterial Biotransformation [13],Bacterial Biotransformation [14],Bacterial Biotransformation [15],Bacterial Biotransformation [16],Bacterial Biotransformation [17],Bacterial Biotransformation [18],Bacterial Biotransformation [19],Bacterial Biotransformation [20]
O=P(O)(O)O.c1ccc(CN(CC2=NCCN2)c2ccccc2)cc1 [ANTAZOLINE PHOSPHATE],Compound NOT metabolized,Compound NOT metabolized,Compound NOT metabolized,Compound NOT metabolized,Compound NOT metabolized,Compound metabolized,Compound metabolized,Compound metabolized,Compound metabolized,Compound NOT metabolized,Compound NOT metabolized,Compound metabolized,Compound NOT metabolized,Compound NOT metabolized,Compound NOT metabolized,Compound metabolized,Compound metabolized,Compound NOT metabolized,Compound NOT metabolized,Compound metabolized
CN1CCC(=C2c3ccccc3CCc3cccnc32)CC1.O=C(O)/C=C\C(=O)O.O=C(O)/C=C\C(=O)O [AZATADINE MALEATE],Compound NOT metabolized,Compound NOT metabolized,Compound NOT metabolized,Compound NOT metabolized,Compound NOT metabolized,Compound NOT metabolized,Compound NOT metabolized,Compound NOT metabolized,Compound NOT metabolized,Compound NOT metabolized,Compound NOT metabolized,Compound NOT metabolized,Compound NOT metabolized,Compound NOT metabolized,Compound NOT metabolized,Compound NOT metabolized,Compound NOT metabolized,Compound NOT metabolized,Compound NOT metabolized,Compound NOT metabolized
